Results on 20 compounds are retold here after patent US11414416B1, “Compounds and uses thereof” (Foghorn Therapeutics Inc., priority 2019, dated 2022).

Where two headings read alike, the source gives them in different places.

The assay addresses Nanoluciferase-BRD9 fusion protein (Homo sapiens (Human), UniProt Q9H8M2). The assay can be described thus: SYO1 BRD9 NanoLuc degradation assay. It is filed as cell-based. The following applies: SYO-1 cells expressing 3×FLAG-NLuc-BRD9, 6 hours, read-out: SYO1 BRD9-NanoLuc degradation IC50. Put shortly:
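Degradation was read as loss of nanoluciferase signal (Nano-Glo) after 6 h compound exposure in a stable SYO-1 line carrying 3×FLAG-NLuc-BRD9 (8000 cells/well). Normalised between DMSO (high) and a 1 μM known BRD9 degrader (low).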

Nanoluciferase-BRD9 fusion protein, sequence (Q9H8M2 whole entry, the tested form may be a part): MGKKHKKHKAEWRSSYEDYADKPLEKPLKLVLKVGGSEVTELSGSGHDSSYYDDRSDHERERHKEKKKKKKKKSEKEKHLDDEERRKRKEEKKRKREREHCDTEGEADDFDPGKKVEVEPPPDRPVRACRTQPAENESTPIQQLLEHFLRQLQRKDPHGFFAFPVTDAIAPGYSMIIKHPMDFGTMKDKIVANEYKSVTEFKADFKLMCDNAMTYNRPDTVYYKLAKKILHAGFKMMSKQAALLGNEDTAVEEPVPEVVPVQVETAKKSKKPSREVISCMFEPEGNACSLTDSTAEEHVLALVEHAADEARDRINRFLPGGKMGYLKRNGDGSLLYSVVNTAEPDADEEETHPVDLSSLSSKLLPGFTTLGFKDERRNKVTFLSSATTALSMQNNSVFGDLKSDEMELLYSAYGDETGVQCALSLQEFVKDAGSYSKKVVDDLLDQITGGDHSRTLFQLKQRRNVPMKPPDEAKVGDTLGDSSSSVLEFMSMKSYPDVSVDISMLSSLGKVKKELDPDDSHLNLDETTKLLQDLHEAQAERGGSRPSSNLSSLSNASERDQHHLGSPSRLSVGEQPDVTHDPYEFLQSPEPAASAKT

For the compound `COc1cc(-c2cc(C)c(=O)n(C)c2)cc(OC)c1CN1CCN(c2ccc3c(c2)C(=O)N(C2CCC(=O)NC2=O)C3=O)CC1` (centres unmarked) [Compound D330], for the setting “Table 5B”, the DC50 is less than 10 nM.
Regarding `COc1cc(-c2cn(C)c(=O)c3cnccc23)cc(OC)c1CN1CCC2(C1)CN(C(=O)CC#Cc1ccc3c(c1)C(=O)N(C1CCC(=O)NC1=O)C3=O)C2` (centres unmarked) [Compound D314], the DC50 (Table 5B) lay in the range of 10 to 100 nM.
For `COc1cc(-c2cn(C)c(=O)c3cnccc23)cc(OC)c1CN(C)CCCCN1CC(Oc2ccc3c(c2)C(=O)N(C2CCC(=O)NC2=O)C3=O)C1` (centres unmarked) [Compound D249], for the setting “Table 5B”, the DC50 fell in the range of 10 to 100 nM.
For the compound `COc1cc(-c2cc(C(F)F)c(=O)n(C)c2C)cc(OC)c1CN1CCC2(C1)CN(c1ccc3c(c1)C(=O)N(C1CCC(=O)NC1=O)C3)C2` (centres unmarked) [Compound D409], for the setting “Table 5C”, the DC50 is less than 10 nM.
In the case of `COc1cc(-c2cn(C)c(=O)c3cnccc23)cc(OC)c1CN(C)CCn1cc(COC2CCN(c3ccc4c(c3)C(=O)N(C3CCC(=O)NC3=O)C4=O)CC2)nn1` (centres unmarked) [Compound D278], under “Table 5B”, the DC50 was 10 to 100 nM.
Regarding `COc1cc(-c2cn(C)c(=O)c3cnccc23)cc(OC)c1CN1CC(Oc2ccc3c(c2)C(=O)N(C2CCC(=O)NC2=O)C3=O)C1C` (centres unmarked) [Compound D376], for the setting “Table 5C”, the DC50 is less than 10 nM.
For `CCc1cc(-c2cn(C)c(=O)c3cnccc23)cc(OC)c1CN1CC(Oc2ccc3c(c2)C(=O)N(C2CCC(=O)NC2=O)C3=O)C1C` (centres unmarked) [Compound D386], the DC50 (Table 5C) is less than 10 nM.
Turning to `COc1cc(-c2cn(C)c(=O)c3cnccc23)cc(OC)c1CN1CCC(c2cc(=O)n(C3CCC(=O)NC3=O)c(C)n2)CC1` (centres unmarked) [Compound D394], the DC50 (Table 5C) was more than 1000 nM.
Consider `COc1cc(-c2cn(C)c(=O)c3cnccc23)cc(OC)c1CN(C)CCCn1cc(CCOc2ccc3c(c2)C(=O)N(C2CCC(=O)NC2=O)C3=O)nn1` (centres unmarked) [Compound D283], for which the DC50 (Table 5B) lay in the range of 100 to 1000 nM.
On to `COc1cc(-c2cn(C)c(=O)c3cnccc23)cc(OC)c1CN1CC(n2cc(COC3CCN(c4ccc5c(c4)C(=O)N(C4CCC(=O)NC4=O)C5=O)CC3)nn2)C1` (centres unmarked) [Compound D302], for which the DC50 (Table 5B) was less than 10 nM.
Take `COc1cc(-c2cn(C)c(=O)c3cnccc23)cc(OC)c1CN1CCC(n2ccc(COc3ccc4c(c3)C(=O)N(C3CCC(=O)NC3=O)C4=O)n2)CC1` (centres unmarked) [Compound D323]: the DC50 (Table 5B) is less than 10 nM.
As to `COc1cc(-c2cn(C)c(=O)c3cnccc23)cc(OC)c1CN1CC(CC(=O)N2CC3(C2)CN(c2ccc4c(c2)C(=O)N(C2CCC(=O)NC2=O)C4=O)C3)C1` (centres unmarked) [Compound D195], the DC50 (Table 5B) was 10 to 100 nM.
`COc1cc(-c2cn(C)c(=O)c3cnccc23)cc(OC)c1CN1CCC2(C1)CN(C(=O)C#Cc1ccc3c(c1)C(=O)N(C1CCC(=O)NC1=O)C3=O)C2` (centres unmarked) [Compound D241]: the DC50 (Table 5B) is less than 10 nM.
For the compound `COc1cc(-c2cn(C)c(=O)c3cnccc23)cc(OC)c1CN1CC(CCN2CCC3(CC2)CC(Oc2ccc4c(c2)C(=O)N(C2CCC(=O)NC2=O)C4=O)C3)C1` (centres unmarked) [Compound D305], the DC50 (Table 5B) is 100 to 1000 nM.
For the compound `COc1cc(-c2cn(C)c(=O)c3cnccc23)cc(OC)c1CN1CCC2(CC1)CN(c1ccc3c(c1)CN(C1CCC(=O)NC1=O)C3=O)C2` (centres unmarked) [Compound D374], the DC50 (Table 5C) is less than 10 nM.
As to `COc1cc(-c2cn(C)c(=O)c3cnccc23)cc(OC)c1CN1CC2(CCN(CC#Cc3ccc4c(c3)C(=O)N(C3CCC(=O)NC3=O)C4=O)CC2)C1` (centres unmarked) [Compound D307], the DC50 (Table 5B) is less than 10 nM.
Turning to `COc1cc(-c2cn(C)c(=O)c3cnccc23)cc(OC)c1CN1CCC2(CC1)CN(c1nccc(C(=O)NC3CCC(=O)NC3=O)n1)C2` (centres unmarked) [Compound D472], the DC50 (Table 5C) is more than 1000 nM.
`COc1cc(-c2cn(C)c(=O)c3cnccc23)cc(OC)c1Cn1cc(CN2CC(Oc3ccc4c(c3)C(=O)N(C3CCC(=O)NC3=O)C4=O)C2)nn1` (centres unmarked) [Compound D270]: the DC50 (Table 5B) is 10 to 100 nM.
As to `COc1cc(-c2cn(C)c(=O)c3cnccc23)cc(OC)c1CN1CCC2C(C1)CN2C(=O)CC#Cc1ccc2c(c1)C(=O)N(C1CCC(=O)NC1=O)C2=O` (centres unmarked) [Compound D315], the DC50 (Table 5B) was less than 10 nM.
As for `COc1cc(-c2cn(C)c(=O)c3cnccc23)cc(OC)c1CN1CCC2(CC1)CN(c1cccc(C(=O)NC3CCC(=O)NC3=O)c1)C2` (centres unmarked) [Compound D392], the DC50 (Table 5C) lay in the range of 10 to 100 nM.
